Test results published in patent publication EP0485091A1, “Process for the production of analogues of immunomycin” (MERCK & CO. INC., priority 1990, dated 1992).

Test system: T lymphocytes
Assay: T-cell proliferation assay (tritiated thymidine uptake, ionomycin + PMA stimulation; also called IL-2 assay)
Assay type: cell-based, C57B1/6 mice
Conditions: for IC50: Mouse T cell cultures, pulsed with 3H-thymidine for 4 hours prior to harvesting at 48 hours
Experimental: Cells were pelleted by centrifugation at 1500 rpm for 8 minutes. Contaminating red cells were removed by treating the pellet with ammonium chloride lysing buffer (GIBCO) for 2 minutes at 4°C. Cold medium was added and cells were again centrifuged at 1500 rpm for 8 minutes. T lymphocytes were then isolated by separation of the cell suspension on nylon wool columns as follows: Nylon wool columns were prepared by packing approximately 4 grams of washed and dried nylon wool into 20 ml plastic syringes. The columns were sterilized by autoclaving at 250°F for 30 minutes. Nylon wool columns were wetted with warm (37°C) culture medium and rinsed with the same medium. Washed spleen cells resuspended in warm medium were slowly applied to the nylon wool. The columns were then incubated in an upright position at 37°C for 1 hour. Non-adherent […] were eluted from the columns with warm culture medium and the cell suspensions were spun as above.
The cell suspension was immediately distributed into 96 well flat-bottom microculture plates (Costar) at 200 µl/well. […] The proliferation of T lymphocytes was assessed by measurement of tritiated thymidine incorporation. After 44 hours of culturing, the cells were pulse-labelled with 2 µCi/well of tritiated thymidine (NEN, Cambridge, MA). After another 4 hours of incubation, cultures were harvested on glass fiber filters using a multiple sample harvester. Radioactivity of filter discs corresponding to individual wells as measured by standard liquid scintillation counting methods (Betacounter). Mean counts per minute of replicate wells were calculated and the results expressed as percent inhibition of tritiated thymidine uptake (profileration) as follows [drawing 11]
• 1. Mouse T cell cultures were pulsed with ³H-thymidine for 4 hours prior to harvesting at 48 hours. • 2.

SMILES	inhibition at 0.01 µg/mL (Mus musculus, T-lymphocyte, 48 h, read-out: percent inhibition of tritiated thymidine uptake (proliferation))	Inhibition of T-cell proliferation after addition of recombinant human IL-2 (50 units/ml of recombinant human IL-2 added at the initiation of culture)	IC50 (T-lymphocyte)	IC50 (T-lymphocyte, same value in molar unit)
C=CC[C@@H]1/C=C(\C)C[C@H](C)C[C@H](OC)[C@H]2O[C@@](O)(C(=O)C(=O)N3CCCC[C@H]3C(=O)O[C@H](/C(C)=C/[C@@H]3CC[C@@H](O)[C@H](OC)C3)[C@H](C)[C@@H](O)CC1=O)[C@H](C)C[C@@H]2OC [L-679,934, reference compound]	99%			
CCC[C@@H]1/C=C(\C)C[C@H](C)C[C@H](OC)[C@H]2O[C@@](O)(C(=O)C(=O)N3CCCC[C@H]3C(=O)O[C@H](/C(C)=C/[C@@H]3CC[C@@H](O)[C@H](OC)C3)[C@H](C)[C@@H](O)CC1=O)[C@H](C)C[C@@H]2OC [fraction 510]		reversed	0.82 ng/mL	1.02 nM
